These results are taken from ChEMBL document CHEMBL5032530, “Discovery of Benzocyclic Sulfone Derivatives as Potent CXCR2 Antagonists for Cancer Immunotherapy” (J Med Chem, 2021).

Bounds are passed on as bounds.

In data set [1] the target is C-X-C chemokine receptor type 2 (Homo sapiens) (UniProt P25025). The data set is described as follows: Antagonist activity against CXCR2 (unknown origin) assessed as inhibition of beta-arrestin 2 recruitment at 10 microM by beta arrestin assay relative to control. The note with it: filed as antagonist. The arrangement: scale not given: the % may be the effect or the level left. In kind it is functional. On the technique in general: Activated receptors often draw arrestin, which recruitment assays turn into a signal.

Data set [2] addresses C-C chemokine receptor type 2 (Homo sapiens) (UniProt P41597). The data set is described as follows: Agonist activity against CCR2 (unknown origin) assessed as induction of beta-arrestin 2 recruitment at 10 microM by beta arrestin assay relative to control. It is filed as functional.
Data set [3] has as its target T1, C-X-C chemokine receptor type 2 (Homo sapiens, UniProt P25025).
T1 sequence (P25025 whole entry): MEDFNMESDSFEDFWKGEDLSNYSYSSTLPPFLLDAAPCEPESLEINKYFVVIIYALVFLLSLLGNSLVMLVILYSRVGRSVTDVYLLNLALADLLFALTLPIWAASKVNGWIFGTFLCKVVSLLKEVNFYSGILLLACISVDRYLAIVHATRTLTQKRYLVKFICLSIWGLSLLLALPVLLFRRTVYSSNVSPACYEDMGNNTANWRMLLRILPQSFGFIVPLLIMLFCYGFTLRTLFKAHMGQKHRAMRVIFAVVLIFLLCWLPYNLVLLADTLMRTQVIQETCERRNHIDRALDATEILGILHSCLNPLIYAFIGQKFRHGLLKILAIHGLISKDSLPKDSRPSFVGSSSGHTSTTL
Kind of data set: Antagonist activity at human CXCR2 expressed in HEK293 cells assessed as inhibition of CXCL8-induced beta-arrestin recruitment preincubated for 30 mins followed by addition of agonist incubated for 90 mins by beta arrestin assay. It is filed as functional, cell-based.

For data set [4], the target named is C-X-C chemokine receptor type 5 (Homo sapiens) (UniProt P32302). Kind of data set: Antagonist activity against CXCR5 (unknown origin) assessed as inhibition of beta-arrestin 2 recruitment at 10 microM by beta arrestin assay relative to control. It is filed as functional. Also noted: scale not given: the % may be the effect or the level left.
Data set [5] can be described thus: Half life in ICR mouse at 3 mg/kg, iv measured upto 48 hrs. In kind it is ADME, organism-based. The note with it: in vivo.
The nature of data set [6]: Apparent volume of distribution in ICR mouse at 3 mg/kg, iv measured upto 48 hrs. It is filed as ADME, organism-based. The note with it: in vivo, read-out: Vz.
In data set [7] the target is C-C chemokine receptor type 8 (Homo sapiens) (UniProt P51685). Kind of data set: Agonist activity against CCR8 (unknown origin) assessed as induction of beta-arrestin 2 recruitment at 10 microM by beta arrestin assay relative to control. In kind it is functional.
The test system of the next data set is Panc02. Kind of data set: Antitumour activity against mouse Panc02 cells xenografted in mouse assessed as change in CD11b expressing immune cells infiltration into tumor tissue using LY6G antibody at 30 mg/kg, po bid measured after 15 days by flow cytometry analysis (reference value: 29.7%). The note with it: time 15 day. In kind it is functional. Background: Flow cytometry measures light scatter and fluorescence of single cells or particles in a stream.

Data set [8] deals with C-X-C chemokine receptor type 3 (Homo sapiens) (UniProt P49682). Kind of data set: Agonist activity against CXCR3 (unknown origin) assessed as induction of beta-arrestin 2 recruitment at 10 microM by beta arrestin assay relative to control. It is filed as functional.
Data set [9] has as its target Atypical chemokine receptor 3 (Homo sapiens) (UniProt P25106). The data set is described as follows: Agonist activity against CXCR7 (unknown origin) assessed as induction of beta-arrestin 2 recruitment at 10 microM by beta arrestin assay relative to control. It is filed as functional.
The target of data set [10] is C-X-C chemokine receptor type 1 (Homo sapiens) (UniProt P25024). Kind of data set: Agonist activity against CXCR1 (unknown origin) assessed as induction of beta-arrestin 2 recruitment at 10 microM by beta arrestin assay relative to control. In kind it is functional.
The target in data set [11] is C-X-C chemokine receptor type 3 (Homo sapiens) (UniProt P49682). The data set is described as follows: Antagonist activity against CXCR3 (unknown origin) assessed as inhibition of beta-arrestin 2 recruitment at 10 microM by beta arrestin assay relative to control. It is filed as functional. Also noted: scale not given: the % may be the effect or the level left.

Chain of C-X-C chemokine receptor type 3 (Homo sapiens) (P49682 whole entry): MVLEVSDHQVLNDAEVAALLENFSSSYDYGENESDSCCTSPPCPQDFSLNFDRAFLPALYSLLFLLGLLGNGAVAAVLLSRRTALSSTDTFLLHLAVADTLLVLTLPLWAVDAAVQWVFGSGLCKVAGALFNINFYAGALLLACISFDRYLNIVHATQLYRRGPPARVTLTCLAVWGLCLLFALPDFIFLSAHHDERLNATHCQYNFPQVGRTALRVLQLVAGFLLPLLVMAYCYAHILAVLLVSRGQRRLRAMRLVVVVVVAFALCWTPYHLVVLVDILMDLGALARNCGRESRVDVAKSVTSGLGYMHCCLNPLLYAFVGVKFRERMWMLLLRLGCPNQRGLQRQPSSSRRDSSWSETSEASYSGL
Chain of C-X-C chemokine receptor type 5 (Homo sapiens) (P32302 whole entry): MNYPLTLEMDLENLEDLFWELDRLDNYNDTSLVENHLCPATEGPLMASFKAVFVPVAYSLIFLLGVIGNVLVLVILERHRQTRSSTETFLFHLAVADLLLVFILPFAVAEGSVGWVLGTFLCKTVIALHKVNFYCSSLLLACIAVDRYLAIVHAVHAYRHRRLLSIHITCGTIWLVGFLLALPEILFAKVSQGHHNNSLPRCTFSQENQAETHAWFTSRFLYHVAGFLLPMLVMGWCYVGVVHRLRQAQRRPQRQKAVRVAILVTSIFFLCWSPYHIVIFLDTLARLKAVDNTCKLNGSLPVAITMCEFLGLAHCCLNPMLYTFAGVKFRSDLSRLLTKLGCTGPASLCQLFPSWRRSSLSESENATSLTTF
Chain of C-X-C chemokine receptor type 1 (Homo sapiens) (P25024 whole entry): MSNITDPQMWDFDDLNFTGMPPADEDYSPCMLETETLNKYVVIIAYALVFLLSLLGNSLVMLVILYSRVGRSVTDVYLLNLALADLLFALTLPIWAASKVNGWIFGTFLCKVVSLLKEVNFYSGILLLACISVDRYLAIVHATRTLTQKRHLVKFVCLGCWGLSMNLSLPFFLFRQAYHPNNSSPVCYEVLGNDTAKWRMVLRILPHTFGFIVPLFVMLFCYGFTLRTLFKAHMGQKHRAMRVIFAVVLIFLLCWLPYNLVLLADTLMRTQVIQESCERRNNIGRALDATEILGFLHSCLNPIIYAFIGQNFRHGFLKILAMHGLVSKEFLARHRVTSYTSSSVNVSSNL
Chain of Atypical chemokine receptor 3 (Homo sapiens) (P25106 whole entry): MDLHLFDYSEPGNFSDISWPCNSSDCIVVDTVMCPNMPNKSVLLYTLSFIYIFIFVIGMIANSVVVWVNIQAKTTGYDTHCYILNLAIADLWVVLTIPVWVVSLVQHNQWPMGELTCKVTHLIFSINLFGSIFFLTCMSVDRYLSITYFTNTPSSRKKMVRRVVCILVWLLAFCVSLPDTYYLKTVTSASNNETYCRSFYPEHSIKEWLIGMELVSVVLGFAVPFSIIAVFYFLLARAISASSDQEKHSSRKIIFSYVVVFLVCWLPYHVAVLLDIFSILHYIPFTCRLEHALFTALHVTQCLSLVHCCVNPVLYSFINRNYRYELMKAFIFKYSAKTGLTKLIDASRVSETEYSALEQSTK
Chain of C-C chemokine receptor type 8 (Homo sapiens) (P51685 whole entry): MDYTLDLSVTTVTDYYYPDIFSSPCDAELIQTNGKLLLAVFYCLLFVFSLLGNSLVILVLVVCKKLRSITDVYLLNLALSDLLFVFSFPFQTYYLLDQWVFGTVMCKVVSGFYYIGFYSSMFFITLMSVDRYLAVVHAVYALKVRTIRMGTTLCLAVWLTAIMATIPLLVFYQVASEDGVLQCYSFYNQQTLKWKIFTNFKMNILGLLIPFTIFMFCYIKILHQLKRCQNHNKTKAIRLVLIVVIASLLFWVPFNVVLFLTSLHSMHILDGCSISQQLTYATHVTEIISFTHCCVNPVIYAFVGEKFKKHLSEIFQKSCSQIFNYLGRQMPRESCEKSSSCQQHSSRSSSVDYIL
Chain of C-C chemokine receptor type 2 (Homo sapiens) (P41597 whole entry, looked up): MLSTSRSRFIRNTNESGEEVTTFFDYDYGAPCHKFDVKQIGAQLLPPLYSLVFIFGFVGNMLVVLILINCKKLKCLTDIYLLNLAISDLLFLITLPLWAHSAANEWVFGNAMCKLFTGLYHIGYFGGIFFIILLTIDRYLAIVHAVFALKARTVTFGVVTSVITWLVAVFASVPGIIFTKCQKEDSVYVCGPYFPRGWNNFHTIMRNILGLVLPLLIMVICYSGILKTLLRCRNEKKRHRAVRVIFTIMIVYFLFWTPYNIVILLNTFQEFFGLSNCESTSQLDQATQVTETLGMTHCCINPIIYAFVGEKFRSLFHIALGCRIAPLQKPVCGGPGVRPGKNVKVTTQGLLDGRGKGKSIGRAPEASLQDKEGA

As usually defined, the IC50 is the concentration needed to halve the response being measured. What is called half-life is how long it takes for the measured level to halve. Regarding `Cc1c(F)cccc1NC(=O)Nc1ccc2c(c1O)S(=O)(=O)CCC2`, the Activity in [1] was 109%; in [2], under 10%; in data set [4], 11%; in data set [7], under 10%; with Panc02, 7.6%; in data set [8], under 10%. Moreover, the Activity in data set [9], in [10] and in data set [11] was under 10% in each case. For the same compound, the IC50 in data set [3] worked out at 95 nM. In [5], this compound showed a half-life of 4.11 h. In [6], the Vd is 49 L/kg.
